Assay results as given in PubChem BioAssay (NCI).
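Assay format: 96-well plates, 48-hour exposure. Here, GI50 denotes the concentration required for 50% inhibition of growth. TGI denotes the concentration required for complete inhibition of growth.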

What was measured:
Test in all cases: NCI anticancer screen, dose series, 48 h
786-0 renal = tested on: 786-0 renal
CAKI-1 renal = tested on: CAKI-1 renal
MOLT-4 leukemia = tested on: MOLT-4 leukemia
NCI-H522 lung = tested on: NCI-H522 lung
NCI-H226 lung = tested on: NCI-H226 lung
SF-539 CNS = tested on: SF-539 CNS
IGROV1 ovarian = tested on: IGROV1 ovarian
HCT-116 colon = tested on: HCT-116 colon
SW-620 colon = tested on: SW-620 colon
HL-60(TB) leukemia = tested on: HL-60(TB) leukemia
UACC-62 melanoma = tested on: UACC-62 melanoma
NCI-H23 lung = tested on: NCI-H23 lung
PC-3 prostate = tested on: PC-3 prostate
MDA-MB-231 breast = tested on: MDA-MB-231 breast
RPMI-8226 leukemia = tested on: RPMI-8226 leukemia
OVCAR-5 ovarian = tested on: OVCAR-5 ovarian
SK-MEL-5 melanoma = tested on: SK-MEL-5 melanoma
SN12C renal = tested on: SN12C renal
U251 CNS = tested on: U251 CNS
MCF7 breast = tested on: MCF7 breast
M14 melanoma = tested on: M14 melanoma
OVCAR-8 ovarian = tested on: OVCAR-8 ovarian
KM12 colon = tested on: KM12 colon
UACC-257 melanoma = tested on: UACC-257 melanoma
LOX IMVI melanoma = tested on: LOX IMVI melanoma
UO-31 renal = tested on: UO-31 renal
NCI-H460 lung = tested on: NCI-H460 lung
SK-MEL-28 melanoma = tested on: SK-MEL-28 melanoma

With `C=C(CN1CCN(c2ccc(F)c(Cl)c2)CC1)c1ccc(C(=O)Nc2ccccc2N)cc1` the GI50 (786-0 renal) was 2.88 µM, the TGI (786-0 renal) was 13.4 µM and the GI50 (CAKI-1 renal) was 4.12 µM. For the same molecule, the TGI (CAKI-1 renal) was 77.8 µM, the GI50 (MOLT-4 leukemia) was 0.764 µM and the TGI (MOLT-4 leukemia) was 4 µM. For the same molecule, the GI50 (NCI-H522 lung) was 1.8 µM, the TGI (NCI-H522 lung) was 5.33 µM and the GI50 (NCI-H226 lung) was 9.12 µM. It also gave a TGI (NCI-H226 lung) of 55.3 µM, a GI50 (SF-539 CNS) of 5.79 µM and a TGI (SF-539 CNS) of 26.2 µM. It also gave a GI50 (IGROV1 ovarian) of 1.88 µM, a TGI (IGROV1 ovarian) of 7.86 µM and a GI50 (HCT-116 colon) of 3.08 µM. The TGI (HCT-116 colon) was 10.3 µM, the GI50 (SW-620 colon) was 5.37 µM and the TGI (SW-620 colon) was over 100 µM. For the same molecule, the GI50 (HL-60(TB) leukemia) was 1.64 µM, the TGI (HL-60(TB) leukemia) was 4.31 µM and the GI50 (UACC-62 melanoma) was 5.24 µM. It also gave a TGI (UACC-62 melanoma) of 54.3 µM, a GI50 (NCI-H23 lung) of 5.27 µM and a TGI (NCI-H23 lung) of 29.7 µM. For the same molecule, the GI50 (PC-3 prostate) was 2.34 µM, the TGI (PC-3 prostate) was 9.23 µM and the GI50 (MDA-MB-231 breast) was 1.81 µM. For the same molecule, the TGI (MDA-MB-231 breast) was 6.81 µM, the GI50 (RPMI-8226 leukemia) was 1.46 µM and the TGI (RPMI-8226 leukemia) was 5.1 µM. The GI50 (OVCAR-5 ovarian) was 15.1 µM, the TGI (OVCAR-5 ovarian) was over 100 µM and the GI50 (SK-MEL-5 melanoma) was 5.62 µM. It also gave a TGI (SK-MEL-5 melanoma) of 22.3 µM, a GI50 (SN12C renal) of 5.1 µM and a TGI (SN12C renal) of 59.5 µM. It also gave a GI50 (U251 CNS) of 4.42 µM, a TGI (U251 CNS) of 23.7 µM and a GI50 (MCF7 breast) of 5.17 µM. The TGI (MCF7 breast) was over 100 µM, the GI50 (M14 melanoma) was 2.65 µM and the TGI (M14 melanoma) was 11.6 µM. For the same molecule, the GI50 (OVCAR-8 ovarian) was 5.42 µM, the TGI (OVCAR-8 ovarian) was over 100 µM and the GI50 (KM12 colon) was 4.07 µM. The TGI (KM12 colon) was over 100 µM, the GI50 (UACC-257 melanoma) was 13.9 µM and the TGI (UACC-257 melanoma) was 47.3 µM. It also gave a GI50 (LOX IMVI melanoma) of 3.47 µM, a TGI (LOX IMVI melanoma) of 12.5 µM and a GI50 (UO-31 renal) of 2.28 µM. For the same molecule, the TGI (UO-31 renal) was 12.1 µM, the GI50 (NCI-H460 lung) was 5.08 µM and the TGI (NCI-H460 lung) was over 100 µM. For the same molecule, the GI50 (SK-MEL-28 melanoma) was 0.529 µM and the TGI (SK-MEL-28 melanoma) was over 100 µM.
